“And” between values parts separate entries of the source, which are not always exact repeats. Identical values can stand only once. Toxic doses and inconclusive results are not listed. Rule for the calls: active = survival T/C of 150% or more; inactive = T/C below 125% in these data.
Tested on: P388 leukemia ip, CD2F1 mice, survival T/C
Experiment: NCI In Vivo Anticancer Drug Screen. Data for tumor model P388 Leukemia (intraperitoneal) in CD2F1 (CDF1) mice
Conditions: endpoint: median survival time, higher = longer survival
How it was run: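 Mice carrying the transplanted tumor received test compound or vehicle. Survival was recorded in each group, and the value is the treated-group measurement divided by that of the vehicle-treated control group.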

[1] = dose: 25.0 mg/kg/injection, schedule: Q01DX009 (ip), vehicle: saline with Tween-80
[2] = dose: 50.0 mg/kg/injection, schedule: Q01DX009 (ip), vehicle: saline with Tween-80
[3] = dose: 100.0 mg/kg/injection, schedule: Q01DX009 (ip), vehicle: saline with Tween-80
[4] = dose: 100.0 mg/kg/injection, schedule: Q04DX003 (ip), vehicle: saline with Tween-80
[5] = dose: 200.0 mg/kg/injection, schedule: Q04DX003 (ip), vehicle: saline with Tween-80
[6] = dose: 400.0 mg/kg/injection, schedule: Q04DX003 (ip), vehicle: saline with Tween-80
[7] = dose: 100.0 mg/kg/injection, schedule: Q01DX009 (ip), vehicle: saline
[8] = dose: 200.0 mg/kg/injection, schedule: Q01DX009 (ip), vehicle: saline
[9] = dose: 100.0 mg/kg/injection, schedule: Q04DX003 (ip), vehicle: saline
[10] = dose: 6.25 mg/kg/injection, schedule: Q01DX009 (ip), vehicle: saline with Tween-80
[11] = dose: 12.5 mg/kg/injection, schedule: Q01DX009 (ip), vehicle: saline with Tween-80
[12] = dose: 50.0 mg/kg/injection, schedule: Q01DX009 (ip), vehicle: Klucel (hydroxypropylcellulose) (HPC)
[13] = dose: 100.0 mg/kg/injection, schedule: Q01DX009 (ip), vehicle: Klucel (hydroxypropylcellulose) (HPC)
[14] = dose: 60.0 mg/kg/injection, schedule: Q01DX005 (ip), vehicle: saline

Measured: T/C

COC1/C=C/OC2(C)Oc3c(C)c(O)c4c(O)c(c(/C=N/N5C(C)CN(Cc6ccc(NC(C)=O)cc6)CC5C)c(O)c4c3C2=O)NC(=O)C(C)=C/C=C/C(C)C(O)C(C)C(O)C(C)C(OC(C)=O)C1C (stereo unspecified)
inactive: dose: 12.5 mg/kg/injection, schedule: Q01DX009 (ip), vehicle: suspension in saline 110 % of control | [1] 119 % of control | dose: 25.0 mg/kg/injection, schedule: Q01DX009 (ip), vehicle: suspension in saline 110 % of control | [2] 99 % of control | dose: 50.0 mg/kg/injection, schedule: Q01DX009 (ip), vehicle: suspension in saline 108 % of control | [3] 99 % of control and 103 % of control | dose: 100.0 mg/kg/injection, schedule: Q01DX009 (ip), vehicle: suspension in saline 99 % of control | dose: 200.0 mg/kg/injection, schedule: Q01DX009 (ip), vehicle: saline with Tween-80 110 % of control and 119 % of control

Cn1cnc2cc(NCCCc3ccccc3)c([N+](=O)[O-])cc2c1=O
inactive: [4] 103 % of control | [5] 101 % of control | [6] 105 % of control

COCCOC(=O)Cc1ccc(OC)c(OC)c1
inactive: [7] 91 % of control | [8] 100 % of control | dose: 400.0 mg/kg/injection, schedule: Q01DX009 (ip), vehicle: saline 104 % of control

CCCCCCCNC1CCCc2cc(OC)ccc21 (stereo unspecified)
inactive: dose: 50.0 mg/kg/injection, schedule: Q04DX003 (ip), vehicle: saline 113 % of control | [9] 99 % of control

OCCCOCCCOCCCOCCCO
inactive: dose: 100.0 mg/kg/injection, schedule: Q01DX001 (ip), vehicle: saline 101 % of control | dose: 200.0 mg/kg/injection, schedule: Q01DX001 (ip), vehicle: saline 108 % of control | dose: 400.0 mg/kg/injection, schedule: Q01DX001 (ip), vehicle: saline 101 % of control

O=C1C(=C(C(F)(F)F)C(F)(F)F)C2CCC1C2 (stereo unspecified)
inactive: dose: 3.13 mg/kg/injection, schedule: Q01DX009 (ip), vehicle: saline with Tween-80 100 % of control | [10] 110 % of control | [11] 100 % of control

O=c1[nH]c(=O)c2cccnc2[nH]1
inactive: dose: 6.25 mg/kg/injection, schedule: Q01DX009 (ip), vehicle: Klucel (hydroxypropylcellulose) (HPC) 93 % of control | dose: 12.5 mg/kg/injection, schedule: Q01DX009 (ip), vehicle: Klucel (hydroxypropylcellulose) (HPC) 99 % of control | dose: 25.0 mg/kg/injection, schedule: Q01DX009 (ip), vehicle: Klucel (hydroxypropylcellulose) (HPC) 121 % of control and 93 % of control | [12] 118 % of control | [13] 99 % of control

O=C(O)CC12CC3CC(CC(O)(C3)C1)C2
inactive: [12] 100 % of control | [13] 109 % of control | dose: 200.0 mg/kg/injection, schedule: Q01DX009 (ip), vehicle: Klucel (hydroxypropylcellulose) (HPC) 90 % of control

O=C(O)c1c[nH]c2cc(OCc3ccc4ccccc4c3)ccc2c1=O
inactive: [9] 90 % of control | dose: 200.0 mg/kg/injection, schedule: Q04DX003 (ip), vehicle: saline 97 % of control | dose: 400.0 mg/kg/injection, schedule: Q04DX003 (ip), vehicle: saline 87 % of control

CCCC(=O)c1ccco1
inactive: [10] 88 % of control | [11] 95 % of control | [1] 95 % of control

O=C(O)CCc1cc(Br)no1
inactive: dose: 50.0 mg/kg/injection, schedule: Q01DX009 (ip), vehicle: saline 101 % of control | [7] 93 % of control | [8] 93 % of control

COc1ccc2nc3cc(Cl)ccc3c(NCCOCCO)c2c1
inactive: [2] 101 % of control | [3] 109 % of control

CC1=CC(Cc2ccccc2)N(C)CC1C (stereo unspecified)
inactive: dose: 60.0 mg/kg/injection, schedule: Q01DX005 (ip), vehicle: saline with Tween-80 97 % of control | dose: 120.0 mg/kg/injection, schedule: Q01DX005 (ip), vehicle: saline with Tween-80 91 % of control

Cc1cc(NCCCN(C)C)c2c(ccc3c(NCCCN(C)C)cc(C)nc32)n1
inactive: dose: 6.0 mg/kg/injection, schedule: Q01DX009 (ip), vehicle: suspension in saline 98 % of control | dose: 12.0 mg/kg/injection, schedule: Q01DX009 (ip), vehicle: suspension in saline 104 % of control | dose: 24.0 mg/kg/injection, schedule: Q01DX009 (ip), vehicle: saline with Tween-80 96 % of control | dose: 24.0 mg/kg/injection, schedule: Q01DX009 (ip), vehicle: suspension in saline 115 % of control

CCOC(=O)c1nc(N(C)C)oc(=O)c1C
inactive: [14] 101 % of control | dose: 120.0 mg/kg/injection, schedule: Q01DX005 (ip), vehicle: saline 97 % of control | dose: 240.0 mg/kg/injection, schedule: Q01DX005 (ip), vehicle: saline 100 % of control

CC(C)CC(Br)C(=O)NCC(=O)O (stereo unspecified)
inactive: [4] 104 % of control | [5] 100 % of control | [6] 104 % of control

O=C(O)CN(CCN(CC(=O)O)CC(=O)O)CC(=O)O.[Cl][Pd][Cl]
inactive: dose: 15.0 mg/kg/injection, schedule: Q01DX005 (ip), vehicle: saline 97 % of control | dose: 30.0 mg/kg/injection, schedule: Q01DX005 (ip), vehicle: saline 93 % of control | [14] 91 % of control and 95 % of control

CC(CCc1nc2ccccc2[nH]1)c1nc2ccccc2[nH]1 (stereo unspecified)
inactive: dose: 25.0 mg/kg/injection, schedule: Q01DX005 (ip), vehicle: Klucel (hydroxypropylcellulose) (HPC) 92 % of control | dose: 50.0 mg/kg/injection, schedule: Q01DX005 (ip), vehicle: Klucel (hydroxypropylcellulose) (HPC) 94 % of control | dose: 100.0 mg/kg/injection, schedule: Q01DX005 (ip), vehicle: Klucel (hydroxypropylcellulose) (HPC) 91 % of control | dose: 200.0 mg/kg/injection, schedule: Q01DX005 (ip), vehicle: Klucel (hydroxypropylcellulose) (HPC) 91 % of control

CC(O)(CSc1ccccc1)CSc1ccccc1 (tested in a mixture with another compound)
inactive: dose: 25.0 mg/kg/injection, schedule: Q01DX005 (ip), vehicle: saline with Tween-80 102 % of control | dose: 50.0 mg/kg/injection, schedule: Q01DX005 (ip), vehicle: saline with Tween-80 100 % of control | dose: 100.0 mg/kg/injection, schedule: Q01DX005 (ip), vehicle: saline with Tween-80 98 % of control | dose: 200.0 mg/kg/injection, schedule: Q01DX005 (ip), vehicle: saline with Tween-80 100 % of control

Cn1c(N)c(C(=O)Cc2ccccc2)c(=O)n(C)c1=O
inactive: dose: 100.0 mg/kg/injection, schedule: Q04DX003 (ip), vehicle: Klucel (hydroxypropylcellulose) (HPC) 109 % of control | dose: 200.0 mg/kg/injection, schedule: Q04DX003 (ip), vehicle: Klucel (hydroxypropylcellulose) (HPC) 100 % of control | dose: 400.0 mg/kg/injection, schedule: Q04DX003 (ip), vehicle: Klucel (hydroxypropylcellulose) (HPC) 109 % of control

O=C1C=CC(Nc2cccc([N+](=O)[O-])c2)C1Nc1cccc([N+](=O)[O-])c1 (stereo unspecified)
inactive: dose: 7.5 mg/kg/injection, schedule: Q01DX005 (ip), vehicle: saline with Tween-80 102 % of control | dose: 15.0 mg/kg/injection, schedule: Q01DX005 (ip), vehicle: saline with Tween-80 90 % of control | dose: 30.0 mg/kg/injection, schedule: Q01DX005 (ip), vehicle: saline with Tween-80 91 % of control | dose: 240.0 mg/kg/injection, schedule: Q01DX005 (ip), vehicle: saline with Tween-80 88 % of control and 92 % of control

Source: PubChem BioAssay AID330 (DTP/NCI, 2004)
